Experimental data published in patent publication US9376442B2, “Methylpyrrolopyrimidinecarboxamides” (Takeda GmbH, priority 2009, dated 2016).

Biological target: T1, PDE5A1 (Homo sapiens, UniProt O76074)
T1 construct: from tissue; host or cells: human platelets from fresh donor blood (10,000 x g supernatant of sonicated lysate)
Experiment: Inhibition of type 5 phosphodiesterase (PDE5) activity, modified SPA test with human platelet lysate
Type: biochemical
Conditions: 0.5 μM cGMP, read-out: PDE5A1 inhibitory values [measured as −log IC50 (mol/l)] (converted)
Method: Method for Measuring Inhibition of the Type 5 Phosphodiesterase (PDE5) Activity:
As a source for human PDE5, platelets are used. For that purpose, 150 ml fresh blood from human donors anticoagulated with citrate [final concentration 0.3% (w/v)] is centrifuged at 200 g for 10 min to obtain the so-called platelet-rich-plasma (PRP) as a supernatant. 1/10 volume of ACD solution (85 mM Na3-citrate, 111 mM D-glucose, 71 mM citric acid, pH 4.4) is added to 9/10 volume of PRP. After centrifugation (1,400 g, 10 min) the cell pellet is resuspended in 3 ml homogenization buffer (NaCl 140 mM, KCl 3.8 mM, EGTA (ethylene glycol tetraacetic acid) 1 mM, MgCl2 1 mM, Tris-HCl 20 mM, beta-mercaptoethanol 1 mM, pH 8.2) plus protease-inhibitor mix giving rise to the final concentrations of 0.5 mM Pefablock (Roche), 10 μM Leupeptin, 5 μM Trypsininhibitor, 2 mM Benzamidin and 10 μM Pepstatin A. The suspension is sonified and thereafter centrifuged for 15 min at 10,000 g. The resulting supernatant (platelet lysate) is used for enzymatic testings.
PDE5A1 activity is inhibited by the compounds of the present subject matter in a modified SPA (scintillation proximity assay) test, supplied by Amersham Biosciences (see procedural instructions “phosphodiesterase [3H]cAMP SPA enzyme assay, code TRKQ 7090”), carried out in 96-well microtitre plates (MTP's). The test volume is 100 μl and contains 20 mM Tris buffer (pH 7.4), 0.1 mg of BSA (bovine serum albumin)/ml, 5 mM Mg^2+, 1 μM motapizone, 10 nM PDE2 inhibitor 2-(3,4-dimethoxybenzyl)-7-[(1R,2R)-2-hydroxy-1-(2-phenylethyl)propyl]-5-methylimidazo[5,1-f][1,2,4]triazin-4(3H)-one, 0.5 μM cGMP (cyclic guanosine monophosphate) (including about 50,000 cpm of [3H]cGMP as a tracer), 1 μl of the respective compound dilution in dimethylsulfoxide (DMSO) and sufficient PDE5-containing platelet lysat (10,000×g supernatant, see above) to ensure that 10-20 wt % of the cGMP is converted under the said experimental conditions. […] After a preincubation of 5 min at 37° C., the reaction is started by adding the substrate (cGMP) and the assay is incubated for a further 15 min; after that, it is stopped by adding SPA beads (50 μl). In accordance with the manufacturer's instructions, the SPA beads had previously been resuspended in water, but are then diluted 1:3 (v/v) in water; the diluted solution also contains 3 mM […] (IBMX) to ensure a complete PDE activity stop. After the beads have been sedimented (>30 min), the MTP's are analyzed in commercially available luminescence detection devices. The corresponding IC50 values of the compounds for the inhibition of PDE activity are determined from the concentration-effect curves by means of non-linear regression.

| IC50 [nM] | SMILES |
| --- | --- |
| < 1 | CCC(=O)N1CC[C@@H](NC(=O)c2c(C)[nH]c3c(-c4cc(F)c(OC)cc4OCC4CC4)ncnc23)[C@H](O)C1 (relative stereo) [Example E143, 4-[2-(Cyclopropylmethoxy)-5-fluoro-4-methoxyphenyl]-N-[(3R*,4R*)-3-hydroxy-1-propanoylpiperidin-4-yl]-6-methyl-5H-pyrrolo[3,2-d]pyrimidine-7-carboxamide] |
| < 1 | COCC(=O)N[C@H]1CC[C@H](NC(=O)c2c(C)[nH]c3c(-c4cc(F)c(OC)cc4OCC4CC4)ncnc23)CC1 [Example E137, 4-[2-(Cyclopropylmethoxy)-5-fluoro-4-methoxyphenyl]-N-{trans-4-[(methoxyacetyl)amino]cyclohexyl}-6-methyl-5H-pyrrolo[3,2-d]pyrimidine-7-carboxamide] |
| 1 to 10 | COCC(=O)N1CC[C@H](NC(=O)c2c(C)[nH]c3c(-c4ccc(F)cc4OCC4CC4)ncnc23)[C@@H](O)C1 (relative stereo) [Example E36, 4-[2-(Cyclopropylmethoxy)-4-fluorophenyl]-N-[(3S*,4S*)-3-hydroxy-1-(methoxyacetyl)piperidin-4-yl]-6-methyl-5H-pyrrolo[3,2-d]pyrimidine-7-carboxamide] |
| 1 to 10 | COCC(=O)N1CC[C@@H](NC(=O)c2c(C)[nH]c3c(-c4cc(F)ccc4OCC4CC4)ncnc23)C1 [Example E48, 4-[2-(Cyclopropylmethoxy)-5-fluorophenyl]-N-[(3R)-1-(methoxyacetyl)pyrrolidin-3-yl]-6-methyl-5H-pyrrolo[3,2-d]pyrimidine-7-carboxamide] |
| < 1 | COc1cc(-c2nc(C)nc3c(C(=O)NC4CCN(C(=O)CO)CC4)c(C)[nH]c23)c(OCC2CC2)cc1F [Example F109, 4-[2-(Cyclopropylmethoxy)-4-fluoro-5-methoxyphenyl]-N-[1-(hydroxyacetyl)piperidin-4-yl]-2,6-dimethyl-5H-pyrrolo[3,2-d]pyrimidine-7-carboxamide] |
| < 1 | Cc1[nH]c2c(-c3c(OCC4CC4)ccc4c3OCO4)ncnc2c1C(=O)N[C@H]1CC[C@H](NC(=O)[C@H](C)O)CC1 [Example F4, 4-[5-(cyclopropylmethoxy)-1,3-benzodioxol-4-yl]-N-(trans-4-{[(2S)-2-hydroxypropanoyl]amino}cyclohexyl)-6-methyl-5H-pyrrolo[3,2-d]pyrimidine-7-carboxamide] |
| < 1 | CCC(=O)N[C@H]1CC[C@H](NC(=O)c2c(C)[nH]c3c(-c4cc(C(C)=O)ccc4OCC4CC4)ncnc23)CC1 [Example E167, 4-[5-Acetyl-2-(cyclopropylmethoxy)phenyl]-6-methyl-N-[trans-4-(propanoylamino)cyclohexyl]-5H-pyrrolo[3,2-d]pyrimidine-7-carboxamide] |
| 1 to 10 | COCC(=O)N1C[C@@H](O)[C@H](NC(=O)c2c(C)[nH]c3c(-c4cc(OC)ccc4OCC4CC4)ncnc23)C1 (relative stereo) [Example E194, 4-[2-(Cyclopropylmethoxy)-5-methoxyphenyl]-N-[(3R*,4R*)-4-hydroxy-1-(methoxyacetyl)pyrrolidin-3-yl]-6-methyl-5H-pyrrolo[3,2-d]pyrimidine-7-carboxamide] |
| < 1 | Cc1[nH]c2c(-c3ccc(F)cc3OCC3CC3)ncnc2c1C(=O)N[C@@H]1CCN(C(=O)[C@H](C)O)C1 [Example F18, 4-[2-(cyclopropylmethoxy)-4-fluorophenyl]-N-{(3R)-1-[(2S)-2-hydroxypropanoyl]pyrrolidin-3-yl}-6-methyl-5H-pyrrolo[3,2-d]pyrimidine-7-carboxamide] |
| 1 to 10 | COCC(=O)N1C[C@@H](O)[C@H](NC(=O)c2c(C)[nH]c3c(-c4ccc(F)cc4OCC4CC4)ncnc23)C1 (relative stereo) [Example E33, 4-[2-(Cyclopropylmethoxy)-4-fluorophenyl]-N-[(3R*,4R*)-4-hydroxy-1-(methoxyacetyl)pyrrolidin-3-yl]-6-methyl-5H-pyrrolo[3,2-d]pyrimidine-7-carboxamide] |
| < 1 | CC(=O)N1CC[C@@H](NC(=O)c2c(C)[nH]c3c(-c4cc(C)c(F)cc4OCC4CC4)ncnc23)[C@H](O)C1 (relative stereo) [Example E128, N-[(3R*,4R*)-1-Acetyl-3-hydroxypiperidin-4-yl]-4-[2-(cyclopropylmethoxy)-4-fluoro-5-methylphenyl]-6-methyl-5H-pyrrolo[3,2-d]pyrimidine-7-carboxamide] |
| < 1 | COCC(=O)N1CCC(NC(=O)c2c(C)[nH]c3c(-c4cc(C)c(F)cc4OCC4CC4)ncnc23)CC1 [Example E121, 4-[2-(Cyclopropylmethoxy)-4-fluoro-5-methylphenyl]-N-[1-(methoxyacetyl)piperidin-4-yl]-6-methyl-5H-pyrrolo[3,2-d]pyrimidine-7-carboxamide] |
| < 1 | Cc1cc(-c2ncnc3c(C(=O)N[C@H]4CC[C@@H](NC(=O)[C@H](C)O)CC4)c(C)[nH]c23)c(OCC2CC2)cc1F [Example F80, 4-[2-(Cyclopropylmethoxy)-4-fluoro-5-methylphenyl]-N-(cis-4-{[(2S)-2-hydroxypropanoyl]amino}cyclohexyl)-6-methyl-5H-pyrrolo[3,2-d]pyrimidine-7-carboxamide] |
| < 1 | COCC(=O)N1CC[C@@H](NC(=O)c2c(C)[nH]c3c(-c4cc(OC)c(F)cc4OCC4CC4)ncnc23)[C@H](O)C1 (relative stereo) [Example E115, 4-[2-(cyclopropylmethoxy)-4-fluoro-5-methoxyphenyl]-N-[(3R*,4R*)-3-hydroxy-1-(methoxyacetyl)piperidin-4-yl]-6-methyl-5H-pyrrolo[3,2-d]pyrimidine-7-carboxamide] |
| < 1 | COc1ccc(-c2ncnc3c(C(=O)N[C@H]4CC[C@H](NC(=O)[C@H](C)O)CC4)c(C)[nH]c23)c(OCC2CC2)c1 [Example F36, 4-[2-(Cyclopropylmethoxy)-4-methoxyphenyl]-N-(trans-4-{[(2S)-2-hydroxypropanoyl]amino}cyclohexyl)-6-methyl-5H-pyrrolo[3,2-d]pyrimidine-7-carboxamide] |
| 1 to 10 | Cc1[nH]c2c(-c3ccc(F)cc3OCC3CC3)ncnc2c1C(=O)N[C@H]1CCN(C(=O)CO)C[C@@H]1O (relative stereo) [Example F21, 4-[2-(Cyclopropylmethoxy)-4-fluorophenyl]-N-[(3S*,4S*)-3-hydroxy-1-(hydroxyacetyl)piperidin-4-yl]-6-methyl-5H-pyrrolo[3,2-d]pyrimidine-7-carboxamide] |
| < 1 | CC(=O)N[C@H]1CC[C@@H](NC(=O)c2c(C)[nH]c3c(-c4ccc(F)cc4OCC4CC4)ncnc23)CC1 [Example E25, N-(cis-4-acetamidocyclohexyl)-4-[2-(cyclopropylmethoxy)-4-fluorophenyl]-6-methyl-5H-pyrrolo[3,2-d]pyrimidine-7-carboxamide] |
| < 1 | COc1cc(-c2ncnc3c(C(=O)N[C@@H]4CCN(C(=O)CO)C[C@H]4O)c(C)[nH]c23)c(OCC2CC2)cc1F (relative stereo) [Example F71, 4-[2-(Cyclopropylmethoxy)-4-fluoro-5-methoxyphenyl]-N-[(3R*,4R*)-1-glycoloyl-3-hydroxypiperidin-4-yl]-6-methyl-5H-pyrrolo[3,2-d]pyrimidine-7-carboxamide] |
| < 1 | COCC(=O)N1CCC(NC(=O)c2c(C)[nH]c3c(-c4ccc(OC)cc4OCC4CC4)ncnc23)CC1 [Example E57, 4-[2-(Cyclopropylmethoxy)-4-methoxyphenyl]-N-[1-(methoxyacetyl)piperidin-4-yl]-6-methyl-5H-pyrrolo[3,2-d]pyrimidine-7-carboxamide] |
